Experimental data taken from patent US9144556B2, “Composition for promoting lipolysis” (LION CORPORATION, priority 2011, dated 2015).

System: rat mesenteric adipocytes
Assay: Rate of promoting lipolysis (glycerol quantification in culture supernatant of rat mesenteric adipocytes)
Format: cell-based
Settings: for Rate of promoting lipolysis of the combination compared with the value obtained by adding the rates of the single preparations (synergy): combined preparation versus sum of single preparations at corresponding concentration; for Rate of promoting lipolysis (combined preparation (+ lactoferrin 10 ppm)) / Rate of promoting lipolysis (combined preparation (+ lactoferrin 30 ppm)) / Rate of promoting lipolysis (single preparation): 48 hours, additive free group = 0%; for Rate of promoting lipolysis (single preparation): relative glycerol amount
Procedure: Promoting the breakdown of the fat by the composition for promoting the lipolysis of the present invention can be confirmed, for example, by conducting Examples. That is, a sample is added to a precursor adipocyte prepared from rat mesenteric tissue, and glycerol is quantified. A commercially available kit such as F-Kit Glycerol (supplied from Roche, product number: 14820) may be used for the quantification. When the amount of obtained glycerol is larger than the amount of glycerol when the sample was not added, it can be confirmed that the lipolysis was promoted.
Two SD rats (male, 10 weeks of age, Japan SLC, Inc.) were used. The rats were euthanized under anesthesia with ether and anatomized, and mesenteric adipose tissue was removed. The obtained tissue was placed in a sterilized petri dish, immersed in ice-cold saline (Otsuka Normal Saline, supplied from Otsuka Pharmaceutical Co., Ltd.) containing 1% antibiotic (Antibiotic-Antimycotic Stabilized, supplied from Sigma, A5955), and washed to remove blood and hairs, particularly lymphocytes (washed several times with different saline until no hair was visible). The tissue was cut using ophthalmic scissors (cut 25 times per 1 g of the tissue), and dispersed by stirring every several minutes in a PBS solution containing 1 mg/mL of collagenase (Collagenase S-1 derived from Actinomycetes, supplied from Nitta Gelatin Inc.) at 37° C. for 40 minutes. Roughly, the tissue from one rat was treated with 20 mL of the collagenase solution.
The tissue suspension was filtrated through a cell strainer with a pore size of 100 μm (REF352360 supplied from BD Falcon). Subsequently, a viscosity of the suspension was reduced by adding 20 mL of DMEM (Dulbecco's Modified Eagle's Medium-high glucose, D5796 supplied from Sigma), and then the suspension was centrifuged at 800 rpm for 10 minutes. An oil layer in an upper layer was removed using an aspirator, and then, the resulting suspension was resuspended and filtrated through a cell strainer with a pore size of 70 μm (REF352350 supplied from BD Falcon). After centrifuging at 800 rpm for 15 minutes, it was confirmed that there was no suspended cell in a supernatant, the presence of a pellet was confirmed, and then the supernatant was removed. The pellet was suspended in 5 mL of DMEM (serum free), the suspension was centrifuged at 800 rpm for 15 minutes, and then the supernatant was removed.
The resulting pellet was gently suspended in 5 mL of a medium for visceral adipocyte differentiation (Visceral Adipocyte Culture Medium, 250 mL, code: VACMR supplied from Primary Cell Co., Ltd.). The suspension was diluted to 10 times, and the number of cells was counted and was 1.015×10^7 cells/mL. 2.54×10^7 cells could be recovered from one rat. The cells suspended in the medium were placed so as to be at 6×10^6 cells/24-wells and 500 μL/well, and their cultivation was started. On the following day, 500 μL of the medium was added, and subsequently the medium was changed every third day. […]. On the 6th day after the start of the cultivation, the medium was changed to a medium containing each sample. A culture supernatant was collected 48 hours after adding the sample, and the cultivation was terminated. It was visually confirmed that there was no cytotoxicity in all of the cultivations.
A concentration of lactoferrin was adjusted to 30 ppm or 10 ppm, and lactoferrin at each concentration was used as the sample for evaluating the effect of lactoferrin alone (Comparative Experimental example 1). Each ingredient other than lactoferrin was used as the sample for evaluating the effect of a single preparation alone as follows. Lactoferrin and each ingredient other than lactoferrin were adjusted to the following concentrations and mixed to use as the sample for evaluating the effect of a combined preparation (Experimental Examples 1 to 9 and Comparative Experimental Examples 2 to 4). […]

[1] = ingredient 10 ppm + lactoferrin 10 ppm
[2] = ingredient 10 ppm + lactoferrin 30 ppm
[3] = ingredient 30 ppm + lactoferrin 10 ppm
[4] = ingredient 30 ppm + lactoferrin 30 ppm

Compound | Rate of promoting lipolysis of the combination compared with the value obtained by adding the rates of the single preparations (synergy) | Rate of promoting lipolysis (combined preparation (+ lactoferrin 10 ppm)) [1] [%] | Rate of promoting lipolysis (combined preparation (+ lactoferrin 30 ppm)) [2] [%] | Rate of promoting lipolysis (single preparation) (ingredient 10 ppm alone) [%] | Rate of promoting lipolysis (combined preparation (+ lactoferrin 10 ppm)) [3] [%] | Rate of promoting lipolysis (combined preparation (+ lactoferrin 30 ppm)) [4] [%] | Rate of promoting lipolysis (single preparation) (ingredient 30 ppm alone) [%] | Rate of promoting lipolysis (combined preparation (+ lactoferrin 10 ppm)) (ingredient 10 ppm + lactoferrin 10 ppm, listed as raspberry ketone) | Rate of promoting lipolysis (single preparation) (ingredient 10 ppm alone, listed as raspberry ketone)
O=C(/C=C/c1ccc(O)c(O)c1)O[C@@H]1C[C@](O)(C(=O)O)C[C@@H](O)[C@H]1O [Chlorogenic acid, chlorogenic acid] | No prominently synergistic effect | 12 | 20 | 3 | 14 | 22 | 5 | – | –
O=C(O[C@@H]1Cc2c(O)cc(O)cc2O[C@@H]1c1cc(O)c(O)c(O)c1)c1cc(O)c(O)c(O)c1 [Epigallocatechin gallate, epigallocatechin gallate] | No prominently synergistic effect | 11 | 21 | −6 | 13 | 24 | 3 | – | –
CC(=O)CCc1ccc(O)cc1 [Raspberry ketone, 4-(4-hydroxyphenyl)-2-butanone] | – | 22 | 57 | −2 | 34 | 70 | 10 | more excellent effect of promoting the lipolysis than in the case of lactoferrin 10 ppm alone | rather inhibited the lipolysis
Lactoferrin | – | – | – | 12.1 | – | – | 21.3 | – | –
